# Patent publication US8048638B2, “Biomarkers of liver injury” (priority 2005, dated 2011)
# Assays:
# Rats [1] = test: Serum ASS, CPS-1, SULT2A1 and ALT levels after repeated MDMA injections (Ecstasy liver injury); format: in vivo, rat; conditions: for Serum ASS compared to control serum levels / Serum SULT2A1 compared to control serum levels: i.p.; for Serum ASS compared to control serum levels: 10 mg/kg injections at 1.5 hr intervals
# Protocol: Serum arginosuccinate synthetase (ASS), carbamoylphosphate synthase-1 (CPS-1) and sulfur transferase isoform A1 (SULT2A1) levels were measured after repeated injections of 10 mg/kg of methylenedioxyacetamine (MDMA) at 1.5 hr intervals.
# Rats [2] = conditions: Western blot
# Protocol: The analysis shown in Table 1, is performed by Western blot using antibody available through various sources. Typically, 25 μg protein are loaded with two identical sets of 5 samples, separated in 4-20% polyacrylamide gel mini-slabs, and transferred onto PVDF membrane. The membrane is cut in 2 pieces, blocked, probed with two different antibodies, visualized using ECL Plus Kit (Pierce, Inc) and scanned. The membranes are stripped using stripping buffer and re-probed with other two antibody. After visualizing the bands with EDCL Plus Kit and scanning, membranes are stripped again, probed with aII-spectrin antibody and developed using alkaline phosphatase detection method. For accurate assessment of molecular mass of developed proteins, two sets of protein standards are added and developed simultaneously (Magic Markers, Invitrogen, Inc).
# Blood is collected from rat heart at the end of experimental procedures. Plasma is obtained from K-EDTA preserved blood by centrifugation. 20 μl of plasma or serum is mixed with 180 μl of RIPA buffer (with proteases inhibitors), vortexed, incubated on ice for 30 min and centrifuged. Supernatants are removed, aliquots mixed with sample buffer 1:1, heated and loaded onto gel.
# Rats [3] = test: Plasma ASS and ALT accumulation after carbon tetrachloride injection (chlorinated hydrocarbon liver injury); format: in vivo, rat; conditions: for Plasma ASS increase relative to control (FIG. 30A): rat model; for Plasma ALT accumulation / Plasma ASS increase compared to controls: rats; for Plasma ASS increase compared to controls: 0.5 ml/kg CCL4 in vegetable oil
# Protocol: Rats (n=6) were injected with 0.5 ml/kg of carbon tetrachloride (CCL4) in vegetable oil. Plasma arginosuccinate synthetase (ASS) and alanine transaminase (ALT) accumulation was measured 1 hr and 24 hr after injection. ASS increased over 15-fold compared to controls after 1 hr and over 50-fold compared to controls after 24 hr (p<0.0001), as shown in FIG. 30A.
structure (smiles),measurement,setting,value
"CNC(C)Cc1ccc2c(c1)OCO2 (stereo not drawn) [MDMA, methylenedioxyacetamine]",Serum ASS compared to control serum levels,"Rats [1]; total 20 mg/kg, p<0.01",significant increase
same,Serum ASS compared to control serum levels,"Rats [1]; total 40 mg/kg, p<0.001",significant increase
same,Serum SULT2A1 compared to control serum levels,"Rats [1]; total 20 mg/kg, p<0.001",significant increase
same,Serum SULT2A1 compared to control serum levels,"Rats [1]; total 40 mg/kg, p<0.0001",significant increase
same,Serum carbamoylphosphate synthase-1 (CPS-1) levels,"Rats [1]; repeated i.p. injection, total 40 mg/kg, 24 hr after last injection, PAGE",increased levels
same,Alanine transferase (ALT),Rats [1]; repeated i.p. injections of 10 mg/kg,No increase
CCO [alcohol],ALT in plasma,Rats [2]; chronic alcohol rats,increased
same,GST-BB in plasma,Rats [2]; rats chronically treated with alcohol,significant increase
same,Intact ASS protein (46 kDa) in plasma,Rats [2]; rats with chronic alcoholic administration,absent
ClC(Cl)(Cl)Cl [carbon tetrachloride],Plasma ASS increase relative to control (FIG. 30A),Rats [3]; 1 hr after injection,15 times
same,Plasma ASS increase relative to control (FIG. 30A),Rats [3]; 24 hr post injection,50 times
same,Plasma ALT accumulation,"Rats [3]; 0.5 ml/kg CCL4, 1 hr after injection",did not increase significantly
same,Plasma ALT accumulation,"Rats [3]; 0.5 ml/kg CCL4, 24 hr after injection, p=0.041",significant increase
same,Plasma ASS increase compared to controls,Rats [3]; 1 hr after injection,over 15 fold
same,Plasma ASS increase compared to controls,"Rats [3]; 24 hr after injection, p<0.0001",over 50 fold
